Experimental data reported in US11767305B2, “Advantageous benzofuran compositions for mental disorders or enhancement” (Tactogen Inc, priority 2020, dated 2023).

Legend:
adrenergic β2 receptor = adrenergic β2 receptor (Homo sapiens (Human), UniProt P07550); test: Adrenergic β2 receptor cAMP secondary messenger antagonist assay; assay type: cell-based
Text: This assay used a panel of CHO-K1 cell lines stably expressing non-tagged GPCRs that endogenously signal through cAMP. Hit Hunter® cAMP assays monitored the activation of a GPCR via Gi and Gs secondary messenger signaling in a homogenous, non-imaging assay format using DiscoverX Enzyme Fragment Complementation (EFC) with β-galactosidase as the functional endpoint.
The enzyme was split into two complementary portions: Enzyme Acceptor (EA) and Enzyme Donor (ED). In the assay, exogenously introduced ED fused to cAMP (ED-cAMP) competed with endogenously generated cAMP for binding to an anti-cAMP-specific antibody. […] Active enzyme could then convert a chemiluminescent substrate, generating an output signal detectable on a standard microplate reader.
Cell lines were expanded from freezer stocks according to standard procedures. Cells were seeded in a total volume of 20 μL into white walled, 384-well microplates and incubated at 37° C. for the appropriate time prior to testing. cAMP modulation was determined using the DiscoverX HitHunter cAMP XS+ assay. […]
Compound activity was analyzed using CBIS data analysis suite (ChemInnovation, CA). For Gs antagonist mode assays, percentage inhibition was calculated as 100%×(1−(mean RLU of test sample−mean RLU of vehicle control)/(mean RLU of EC80 control−mean RLU of vehicle control)).

[1] = molecular target: human 5-HT transporter (hSERT) (Homo sapiens (Human), UniProt P31645); test: Human serotonin transporter  assay ([3H]imipramine radioligand, CHO cells); assay type: binding; details: SERT IC50 (μM), 2 nM [3H]imipramine
Experimental: Benzofuran derivatives were evaluated for inhibiting the human 5-HT transporter (hSERT) as expressed in CHO cells using an antagonist radioligand assay (Tatsumi, M. et al. (1999), Eur. J Pharmacol., 368: 277-283). […] Test compounds were assayed in three trials at […], and 0.94868 μM.

adrenergic β2 receptor, sequence (P07550 whole entry, looked up, the tested form may be a part): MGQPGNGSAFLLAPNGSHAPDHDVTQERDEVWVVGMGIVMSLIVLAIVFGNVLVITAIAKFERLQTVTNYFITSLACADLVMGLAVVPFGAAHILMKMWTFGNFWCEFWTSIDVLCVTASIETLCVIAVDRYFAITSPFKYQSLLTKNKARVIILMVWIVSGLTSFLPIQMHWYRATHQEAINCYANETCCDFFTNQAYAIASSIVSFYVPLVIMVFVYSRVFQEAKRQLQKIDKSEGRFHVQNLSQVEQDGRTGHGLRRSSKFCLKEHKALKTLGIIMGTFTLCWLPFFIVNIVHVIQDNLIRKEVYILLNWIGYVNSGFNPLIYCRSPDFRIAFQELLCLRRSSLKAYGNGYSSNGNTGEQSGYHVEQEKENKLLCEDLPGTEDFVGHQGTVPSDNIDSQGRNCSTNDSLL

`CN[C@H](C)Cc1ccc2ccoc2c1` [Compound R-6-MAPB, (R)-1-(benzofuran-6-yl)-N-methylpropan-2-amine] showed an IC50 (adrenergic β2 receptor) of 4.06 µM and an IC50 [1] of 24 µM.
